Assay [1] relates to Candida albicans. Nature of the assay: Inhibition zone test of oil compositions on Candida albicans (Example 1). On the set-up: unit not given here. Format: cell-based. The protocol:
Different two-oil and three-oil compositions with varying ratios were prepared in order to check the performance of the oils for inhibition of Candida albicans. Fluconazole and saline were used as positive and negative controls, respectively.

Assay [2] relates to Candida albicans. Nature of the assay: Antifungal activity (zone of inhibition) of microcapsules and bacterial cellulose loaded microcapsules. It is filed as cell-based. The text has this: The anti-fungal activity of the microcapsules and cellulosic matrices were checked for inhibition of Candida albicans. The studies are depicted in FIG. 15, FIG. 16, FIG. 17 and FIG. 18.

Consider `Cc1ccc(C(C)C)c(O)c1` [Thymol, 2-isopropyl-5-methylphenol], for which the Inhibition zone diameter in the assay with Candida albicans [1] (volume 50 μL, 24 hrs) was 2.5; in the assay on Candida albicans [1] (volume 100 μL, 24 hrs) it was 3.1; in the assay with Candida albicans [1] (volume 150 μL, 24 hrs), 3.9; in the assay with Candida albicans [1] (volume 200 μL, 24 hrs), 4.2.
In the same order, the values of `C=CCc1ccc(O)c(OC)c1` [Eugenol, 2-Methoxy-4-(prop-2-en-1-yl) phenol] are 2.0, 3.5, 4.1 and 4.3.
Turning to `OC(Cn1cncn1)(Cn1cncn1)c1ccc(F)cc1F` [Fluconazole], the Inhibition zone diameter with Candida albicans [1] (200 μg, time period 24 hrs) amounted to 5.3; in the assay on Candida albicans [1] (200 μg, time period 48 hrs), 4.5; in the assay with Candida albicans [1] (200 μg, time period 72 hrs), 3.4. In addition, the Zone of inhibition with Candida albicans [2] (24 hrs) amounted to 3.5 ± 0.1; with Candida albicans [2] (48 hrs), 1.8 ± 0.1; in the assay on Candida albicans [2] (72 hrs), 1.5 ± 0.1.
For the compound `Cc1ccc(C(C)C)cc1O` [Carvacrol, 5-Isopropyl-2-methylphenol], the Inhibition zone diameter with Candida albicans [1] (volume 50 μL, 24 hrs) stood at 3.2; with Candida albicans [1] (volume 100 μL, 24 hrs), 3.8; in the assay with Candida albicans [1] (volume 150 μL, 24 hrs), 4.5; with Candida albicans [1] (volume 200 μL, 24 hrs), 5.1.

Source of the values: patent publication US20220040115A1, “PHARMACEUTICAL COMPOSITIONS AND DELIVERY SYSTEMS FOR PREVENTION AND TREATMENT OF CANDIDIASIS” (INDIAN INSTITUTE OF TECHNOLOGY HYDERABAD, priority 2018, published 2022).
